Measured values reported in ChEMBL document CHEMBL1135457 (J Med Chem, 2002).

What was measured:
[1] = target: T1, Progesterone receptor (Homo sapiens) (UniProt P06401); test: Displacement of 10 nM [3H]dexamethasone from human Progesterone receptor, percent inhibition at 10 uM
T1 sequence (whole entry): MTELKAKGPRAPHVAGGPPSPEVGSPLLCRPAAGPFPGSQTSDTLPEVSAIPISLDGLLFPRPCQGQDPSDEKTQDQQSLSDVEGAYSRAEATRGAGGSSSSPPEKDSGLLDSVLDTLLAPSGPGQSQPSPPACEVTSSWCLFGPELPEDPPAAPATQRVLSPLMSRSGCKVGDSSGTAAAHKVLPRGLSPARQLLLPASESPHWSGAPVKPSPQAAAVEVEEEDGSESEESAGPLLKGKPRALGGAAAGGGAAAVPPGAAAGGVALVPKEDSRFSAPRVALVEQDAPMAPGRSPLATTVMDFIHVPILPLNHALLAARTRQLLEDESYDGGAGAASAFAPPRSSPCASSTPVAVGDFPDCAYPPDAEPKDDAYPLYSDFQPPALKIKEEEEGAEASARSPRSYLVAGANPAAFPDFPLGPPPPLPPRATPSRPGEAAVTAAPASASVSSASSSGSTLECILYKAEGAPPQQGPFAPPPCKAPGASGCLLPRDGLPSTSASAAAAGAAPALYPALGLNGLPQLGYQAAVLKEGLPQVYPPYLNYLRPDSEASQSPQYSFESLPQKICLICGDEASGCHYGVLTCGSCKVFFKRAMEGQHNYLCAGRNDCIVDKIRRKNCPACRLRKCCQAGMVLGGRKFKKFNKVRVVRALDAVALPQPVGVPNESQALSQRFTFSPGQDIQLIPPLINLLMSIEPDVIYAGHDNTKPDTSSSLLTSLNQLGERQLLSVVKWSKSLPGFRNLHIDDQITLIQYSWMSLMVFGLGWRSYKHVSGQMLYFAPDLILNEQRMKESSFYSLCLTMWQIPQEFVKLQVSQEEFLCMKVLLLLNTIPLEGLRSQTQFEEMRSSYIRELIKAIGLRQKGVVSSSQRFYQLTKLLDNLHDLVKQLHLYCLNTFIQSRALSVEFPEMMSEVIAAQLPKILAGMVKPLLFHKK

[2] = target: T1, Progesterone receptor (Homo sapiens)
Description: Antagonist activity against human Progesterone receptor by displacement of radioligand

[3] = target: T2, Mineralocorticoid receptor (Homo sapiens) (UniProt P08235)
T2 sequence (whole entry): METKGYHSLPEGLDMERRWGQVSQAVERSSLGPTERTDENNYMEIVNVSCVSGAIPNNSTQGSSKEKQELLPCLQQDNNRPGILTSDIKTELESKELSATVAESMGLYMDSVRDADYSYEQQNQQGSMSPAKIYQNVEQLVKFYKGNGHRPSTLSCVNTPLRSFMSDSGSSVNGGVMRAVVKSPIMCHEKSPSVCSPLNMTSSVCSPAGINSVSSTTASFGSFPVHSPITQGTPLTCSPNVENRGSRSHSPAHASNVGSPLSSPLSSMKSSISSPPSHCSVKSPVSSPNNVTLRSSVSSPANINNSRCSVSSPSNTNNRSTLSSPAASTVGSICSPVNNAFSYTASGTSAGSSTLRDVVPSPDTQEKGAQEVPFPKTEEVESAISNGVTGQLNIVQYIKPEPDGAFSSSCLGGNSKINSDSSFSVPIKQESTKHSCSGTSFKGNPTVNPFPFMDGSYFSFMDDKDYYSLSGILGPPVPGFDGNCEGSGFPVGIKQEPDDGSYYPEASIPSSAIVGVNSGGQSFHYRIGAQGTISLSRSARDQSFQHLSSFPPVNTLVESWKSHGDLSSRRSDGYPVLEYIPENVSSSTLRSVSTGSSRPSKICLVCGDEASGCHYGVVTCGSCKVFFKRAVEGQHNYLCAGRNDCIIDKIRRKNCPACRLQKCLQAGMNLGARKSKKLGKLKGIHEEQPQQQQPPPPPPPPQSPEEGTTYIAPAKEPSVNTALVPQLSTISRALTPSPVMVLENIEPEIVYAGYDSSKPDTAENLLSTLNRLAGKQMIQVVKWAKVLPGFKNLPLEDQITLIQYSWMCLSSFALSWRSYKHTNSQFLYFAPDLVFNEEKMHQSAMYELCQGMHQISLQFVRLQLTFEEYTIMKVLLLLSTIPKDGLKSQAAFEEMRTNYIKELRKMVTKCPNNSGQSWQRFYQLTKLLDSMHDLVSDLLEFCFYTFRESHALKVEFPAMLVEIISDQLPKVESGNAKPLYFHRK
Description: Antagonist activity against human mineralocorticoid receptor as displacement of radioligand

[4] = target: T3, Glucocorticoid receptor (Homo sapiens) (UniProt P04150)
T3 sequence (whole entry): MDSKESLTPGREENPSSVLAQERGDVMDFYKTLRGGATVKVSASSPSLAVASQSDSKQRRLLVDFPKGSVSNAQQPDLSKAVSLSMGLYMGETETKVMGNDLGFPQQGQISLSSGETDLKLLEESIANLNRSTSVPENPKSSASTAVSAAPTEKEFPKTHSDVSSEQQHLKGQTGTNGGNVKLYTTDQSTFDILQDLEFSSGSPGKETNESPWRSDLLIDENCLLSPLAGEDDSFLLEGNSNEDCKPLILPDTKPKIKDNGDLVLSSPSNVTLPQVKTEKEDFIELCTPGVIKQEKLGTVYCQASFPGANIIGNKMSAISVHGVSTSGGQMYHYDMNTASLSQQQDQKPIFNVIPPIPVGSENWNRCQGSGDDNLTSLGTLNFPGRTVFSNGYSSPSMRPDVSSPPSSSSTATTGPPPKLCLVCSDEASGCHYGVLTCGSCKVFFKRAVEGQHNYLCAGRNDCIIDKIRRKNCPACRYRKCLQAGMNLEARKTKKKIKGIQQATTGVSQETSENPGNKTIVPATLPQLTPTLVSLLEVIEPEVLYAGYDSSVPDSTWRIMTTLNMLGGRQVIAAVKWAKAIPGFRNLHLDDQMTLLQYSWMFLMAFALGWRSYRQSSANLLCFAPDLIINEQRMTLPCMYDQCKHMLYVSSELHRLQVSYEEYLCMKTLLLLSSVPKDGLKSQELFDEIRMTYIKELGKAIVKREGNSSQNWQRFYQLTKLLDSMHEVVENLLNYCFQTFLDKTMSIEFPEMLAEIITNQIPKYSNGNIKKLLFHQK
Description: Antagonist activity as displacement of 10 nM [3H]dexamethasone from human Glucocorticoid receptor

[5] = target: T1, Progesterone receptor (Homo sapiens); test: Antagonist activity against human Progesterone receptor

For `CC#C[C@]1(O)CCC2C3CCC4=CC(=O)CC[C@]4(Cc4ccc(C)cc4)C3=CC[C@@]21C` (stereo not given in full), the inhibition [1] was 30%.
For `O=C1CC[C@@]2(Cc3ccccc3)c3ccc(O)cc3CC[C@@H]2C1`, the Kif [2] was > 1000 nM and the Kif [3] was > 1000 nM.
With `CC#C[C@@]1(O)CC[C@@]2(Cc3ccccc3)c3ccc(O)cc3CC[C@@H]2C1` the Kif [4] was 10 nM and the Kif [5] was > 1000 nM.
